The structures appear in SMILES notation. Inconclusive results and toxic doses are left out.

This experiment deals with BDF1 mice, B16 melanoma ip, median survival T/C. The experiment is described as follows: NCI In Vivo Anticancer Drug Screen. Data for tumor model B16 Melanoma (intraperitoneal) in B6D2F1 (BDF1) mice. Conditions: endpoint: median survival time, higher = longer survival. The gist of the method: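 Tumor-bearing mice received test compound or vehicle. Survival or tumor size was then measured in both groups. The treated-group figure was divided by the control-group figure.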

Setting [1] is: dose: 100.0 mg/kg/injection, schedule: Q01DX009 (ip), vehicle: Klucel (hydroxypropylcellulose) (HPC).
Where [2] appears, read: dose: 200.0 mg/kg/injection, schedule: Q01DX009 (ip), vehicle: Klucel (hydroxypropylcellulose) (HPC).
The mark [3] stands for this setting: dose: 400.0 mg/kg/injection, schedule: Q01DX009 (ip), vehicle: Klucel (hydroxypropylcellulose) (HPC).
[4] abbreviates: dose: 12.5 mg/kg/injection, schedule: Q01DX009 (ip), vehicle: saline with Tween-80.
Where [5] appears, read: dose: 50.0 mg/kg/injection, schedule: Q01DX009 (ip), vehicle: saline with Tween-80.
The mark [6] stands for this setting: dose: 12.5 mg/kg/injection, schedule: Q01DX009 (ip), vehicle: saline.
Where [7] appears, read: dose: 25.0 mg/kg/injection, schedule: Q01DX009 (ip), vehicle: saline.
The mark [8] stands for this setting: dose: 50.0 mg/kg/injection, schedule: Q01DX009 (ip), vehicle: saline.
Setting [9] is: dose: 100.0 mg/kg/injection, schedule: Q01DX009 (ip), vehicle: saline.
Setting [10] is: dose: 100.0 mg/kg/injection, schedule: Q01DX009 (ip), vehicle: saline with Tween-80.
The mark [11] stands for this setting: dose: 100.0 mg/kg/injection, schedule: Q04DX003 (ip), vehicle: saline.
[12] abbreviates: dose: 200.0 mg/kg/injection, schedule: Q04DX003 (ip), vehicle: saline.

As for `COC(=O)/C=C/N1C(=O)c2ccccc2C1=O`, the T/C runs as follows: under setting [1], 91 % of control; (dose: 135.0 mg/kg/injection, schedule: Q01DX009 (ip), vehicle: Klucel (hydroxypropylcellulose) (HPC)) 90 % of control; under setting [2], 95 % of control; (dose: 300.0 mg/kg/injection, schedule: Q01DX009 (ip), vehicle: Klucel (hydroxypropylcellulose) (HPC)) 95 % of control; under setting [3], 91 % of control.
Regarding `CC[C@@H](O)C[C@H]1CCC[C@@]2(C[C@@H]3OC(=O)/C=C/[C@@](C)(O)[C@@H](O)[C@H](C)[C@@H](O)[C@H](OC4CCC(N(C)C)C(C)O4)[C@@H](O)[C@](C)(O)CCCCC/C=C/[C@@H]4CC(C)(C)O[C@@]4(O)C[C@H](O2)[C@H]3C)O1` (stereo not given in full), the T/C runs as follows: (dose: 4.0 micrograms/kg/injection, schedule: Q01DX009 (ip), vehicle: saline) 101 % of control; (dose: 8.0 micrograms/kg/injection, schedule: Q01DX009 (ip), vehicle: saline) 97 % of control; (dose: 16.0 micrograms/kg/injection, schedule: Q01DX009 (ip), vehicle: saline) 109 % of control; (dose: 32.0 micrograms/kg/injection, schedule: Q01DX009 (ip), vehicle: saline) 93 % of control.
Turning to `Nc1ccc2c(c1)CN1C(=O)c3ccccc3C1=N2`, the T/C under setting [4] was 101 % of control; the T/C (dose: 25.0 mg/kg/injection, schedule: Q01DX009 (ip), vehicle: saline with Tween-80) is 103 % of control; the T/C under setting [5] is 111 % of control.
In the case of `Cc1ccc2c(C)c3c(ccc4ccccc43)c[n+]2c1`, the T/C is 100 % of control (dose: 1.25 mg/kg/injection, schedule: Q01DX009 (ip), vehicle: saline); 95 % of control (dose: 2.5 mg/kg/injection, schedule: Q01DX009 (ip), vehicle: saline with Tween-80); 100 % of control (dose: 2.5 mg/kg/injection, schedule: Q01DX009 (ip), vehicle: saline); 95 % of control (dose: 5.0 mg/kg/injection, schedule: Q01DX009 (ip), vehicle: saline with Tween-80); 100 % of control (dose: 5.0 mg/kg/injection, schedule: Q01DX009 (ip), vehicle: saline); 105 % of control (dose: 10.0 mg/kg/injection, schedule: Q01DX009 (ip), vehicle: saline).
With `CCCCCCCCCCN1CCC(N2CCCCC2)CC1`, the T/C is 91 % of control under setting [6], 93 % of control under setting [7], 98 % of control under setting [8] and 87 % of control under setting [9].
With `CC(Cl)CN(CC(C)Cl)C(=O)OCC(NC(=O)OCc1ccccc1)C(=O)OCc1ccccc1` (stereo not given), the T/C reads like this: (dose: 12.5 mg/kg/injection, schedule: Q04DX003 (ip), vehicle: Klucel (hydroxypropylcellulose) (HPC)) 86 % of control; (dose: 25.0 mg/kg/injection, schedule: Q04DX003 (ip), vehicle: Klucel (hydroxypropylcellulose) (HPC)) 86 % of control; (dose: 50.0 mg/kg/injection, schedule: Q04DX003 (ip), vehicle: Klucel (hydroxypropylcellulose) (HPC)) 86 % of control; under setting [1], 97 % of control; under setting [2], 97 % of control; (dose: 200.0 mg/kg/injection, schedule: Q04DX003 (ip), vehicle: Klucel (hydroxypropylcellulose) (HPC)) 93 % of control. Besides, the T/C under setting [3] was 88 % of control.
`C/C=C/c1ccc(OC(C)=O)c(OC)c1`: the T/C by setting is: under setting [10], 106 % of control; (dose: 200.0 mg/kg/injection, schedule: Q01DX009 (ip), vehicle: saline with Tween-80) 97 % of control; (dose: 400.0 mg/kg/injection, schedule: Q01DX009 (ip), vehicle: saline with Tween-80) 100 % of control.
On to `COc1ccc(CC2C(=O)NC(C)C(=O)N(C)C3Cc4ccc(cc4)Oc4cc(ccc4O)CC(C(=O)NC(C)C(=O)NC(C)C(=O)N2C)N(C)C3=O)cc1` (stereo not given), for which the T/C (dose: 0.25 mg/kg/injection, schedule: Q01DX009 (ip), vehicle: saline with Tween-80) is 117 % of control; the T/C (dose: 0.5 mg/kg/injection, schedule: Q01DX009 (ip), vehicle: saline with Tween-80) was 122 % of control; the T/C (dose: 2.0 mg/kg/injection, schedule: Q01DX009 (ip), vehicle: saline with Tween-80) was 152 % of control; the T/C (dose: 4.0 mg/kg/injection, schedule: Q01DX009 (ip), vehicle: saline with Tween-80) is 175 % of control; the T/C (dose: 8.0 mg/kg/injection, schedule: Q01DX009 (ip), vehicle: saline with Tween-80) was 154 % of control.
On to `Cc1cc(C)nc(NS(=O)(=O)c2ccc(N=Nc3nc4[nH]c(N)nc(=S)c4[nH]3)cc2)n1`, for which the T/C was 115 % of control (dose: 0.19 mg/kg/injection, schedule: Q01DX009 (ip), vehicle: Klucel (hydroxypropylcellulose) (HPC)); 111 % of control (dose: 0.39 mg/kg/injection, schedule: Q01DX009 (ip), vehicle: Klucel (hydroxypropylcellulose) (HPC)); 105 % of control (dose: 0.78 mg/kg/injection, schedule: Q01DX009 (ip), vehicle: Klucel (hydroxypropylcellulose) (HPC)); 102 % of control (dose: 1.56 mg/kg/injection, schedule: Q01DX009 (ip), vehicle: Klucel (hydroxypropylcellulose) (HPC)).
As to `CC1=CCC=C(CNc2ncnc3nc[nH]c23)C1`, the T/C runs as follows: (dose: 3.13 mg/kg/injection, schedule: Q01DX009 (ip), vehicle: saline with Tween-80) 102 % of control; (dose: 6.25 mg/kg/injection, schedule: Q01DX009 (ip), vehicle: saline with Tween-80) 102 % of control; under setting [4], 90 % of control; (dose: 12.5 mg/kg/injection, schedule: Q04DX003 (ip), vehicle: saline with Tween-80) 100 % of control; (dose: 25.0 mg/kg/injection, schedule: Q04DX003 (ip), vehicle: saline with Tween-80) 102 % of control; under setting [5], 88 % of control. Moreover, the T/C (dose: 50.0 mg/kg/injection, schedule: Q04DX003 (ip), vehicle: saline with Tween-80) is 102 % of control.
Regarding `CN(C)C1CC1c1ccccc1` (stereo not given), the T/C by setting is: (dose: 3.12 mg/kg/injection, schedule: Q01DX009 (ip), vehicle: saline) 92 % of control; (dose: 6.25 mg/kg/injection, schedule: Q01DX009 (ip), vehicle: saline) 107 % of control; under setting [6], 97 % of control; under setting [7], 100 % of control; under setting [8], 105 % of control; under setting [9], 98 % of control.
`COc1cccc(N=Cc2ccc(C=Nc3cccc(OC)c3)cc2)c1`: the T/C under setting [1] was 107 % of control, the T/C under setting [2] is 96 % of control and the T/C under setting [3] was 96 % of control.
As to `C[CH2][Sn]([F])([CH2]C)[CH2]C`, the T/C (dose: 0.37 mg/kg/injection, schedule: Q01DX009 (ip), vehicle: saline with Tween-80) was 104 % of control; the T/C (dose: 0.75 mg/kg/injection, schedule: Q01DX009 (ip), vehicle: saline with Tween-80) is 109 % of control; the T/C (dose: 1.5 mg/kg/injection, schedule: Q01DX009 (ip), vehicle: saline with Tween-80) is 102 % of control; the T/C (dose: 3.0 mg/kg/injection, schedule: Q01DX009 (ip), vehicle: saline with Tween-80) is 94 % of control.
With `CCN(CC)CCOC(=O)Cc1ccccc1`, the T/C under setting [1] was 106 % of control, the T/C under setting [2] is 103 % of control and the T/C under setting [3] was 103 % of control.
`O=Cc1cc([N+](=O)[O-])ccc1Cl`: the T/C is 95 % of control under setting [5] and 92 % of control under setting [10].
Regarding `C1CC2(CCN1)SSC1(CCNCC1)S2`, the T/C was 100 % of control under setting [11] and 100 % of control under setting [12].
On to `Cc1cc[n+](C)c2ccccc12`, for which the T/C was 95 % of control (dose: 9.37 mg/kg/injection, schedule: Q01DX009 (ip), vehicle: saline); 92 % of control (dose: 18.75 mg/kg/injection, schedule: Q01DX009 (ip), vehicle: saline); 97 % of control (dose: 37.5 mg/kg/injection, schedule: Q01DX009 (ip), vehicle: saline).
As to `O=[N+]([O-])c1cccc(P(=O)(c2cccc([N+](=O)[O-])c2)c2cccc([N+](=O)[O-])c2)c1`, the T/C under setting [9] is 105 % of control; the T/C under setting [11] is 94 % of control; the T/C (dose: 200.0 mg/kg/injection, schedule: Q01DX009 (ip), vehicle: saline) was 100 % of control; the T/C under setting [12] is 100 % of control; the T/C (dose: 400.0 mg/kg/injection, schedule: Q01DX009 (ip), vehicle: saline) was 107 % of control; the T/C (dose: 400.0 mg/kg/injection, schedule: Q04DX003 (ip), vehicle: saline) is 100 % of control.
For `CC1=C(/C=C/C(C)=N/NC(N)=O)C(C)(C)CCC1`, the T/C (dose: 50.0 mg/kg/injection, schedule: Q04DX003 (ip), vehicle: saline) is 112 % of control; the T/C under setting [11] is 95 % of control; the T/C under setting [12] was 102 % of control.

These data come from PubChem BioAssay AID192 (DTP/NCI, 2004).
